Data taken from patent US9206215B2, “Hydrous crystalline 2-O-α-D-glucosyl-L-ascorbic acid, particulate composition comprising the same, their preparation and uses” (HAYASHIBARA CO., LTD., priority 2010, dated 2015).

What was measured:
Assay type in all cases: physicochemical
[1] = Oil-holding capacity with corn oil; settings: for Oil-holding capacity: five grams of corn oil, particle size 53 to 106 μm, powder added until end point
Protocol: Using a particulate composition containing hydrous crystalline ascorbic acid 2-glucoside obtained by the method in Experiment 3-2, the oil-holding capacity of the particulate composition was determined. As a control, “AA2G”, a product name of a commercialized particulate composition containing anhydrous crystalline ascorbic acid 2-glucoside with a purity of at least 98% by weight, commercialized by Hayashibara Biochemical Laboratories, Inc., Okayama, Japan, was used.
The measurements for oil-holding capacity of the particulate compositions were conducted as follows in accordance with the method disclosed in Japanese Patent Kokai No. 31650/84. Five grams of a corn oil (a reagent grade specimen, Lot No.: WKL1215, commercialized by Wako Pure Chemical Industries, Osaka, Japan, was placed in a 50-ml plastic container, to which was gradually added while stirring the particulate composition containing hydrous crystalline ascorbic acid 2-glucoside or the particulate composition containing anhydrous crystalline ascorbic acid 2-glucoside, both of which had been adjusted to give a particle size of 53 to 106 μm similarly as in Experiment 6. Although the resulting mixture retains a free-flowing ability while the additive amount of any of the particulate compositions is relatively low, but it increases its viscosity as the increase of the additive amount and becomes a clump in due course. As the additive amount further increases, the clump increases its hardness and finally it could not keep together and begins to be unstiffen. The moment was regarded as the end point and the oil-holding capacity was determined by the following equation based on the amount of each crystalline particulate composition that had been added until the end point.

[2] = Tabletting property (cracking or chipping of pressed tablets); settings: powder with particle size 53 to 106 μm, 0.4 g, one ton load for 30 sec, 10 tablets observed for cracking or chipping
Source text: The tabletting property of a particulate composition containing hydrous crystalline ascorbic acid 2-glucoside of the present invention was investigated by the following method and compared with that of a conventional particulate composition containing anhydrous crystalline ascorbic acid 2-glucoside.
A hydrous crystalline ascorbic acid 2-glucoside powder with an ascorbic acid 2-glucoside purity of 99.2% by weight, obtained by the method in Experiment 3, was sieved to collect a powder with a particle size ranging from 53 to 106 μm. The powder thus obtained was placed in a metallic mold for tabletting (11 mm diameter and 30 mm thickness) in an amount of 0.4 g, and tabletted by loading on the powder one ton for 30 sec using “SSP-10A”, a portable press machine, commercialized by Shimadzu Corp., Kyoto, Japan, followed by taking out the resulting tablets by releasing the load. The procedure was repeated 10 times to prepare 10 tablets in total. As a control, “AA2G”, a trade mark of a commercialized particulate composition containing anhydrous crystalline ascorbic acid 2-glucoside with a purity of at least 98%, commercialized by Hayashibara Biochemical Laboratories, Inc., Okayama, Japan, was used to prepare a powder with a particle size ranging from 53 to 106 μm, which was then prepared into 10 tablets by the same method as above. […]

[3] = Tablet hardness measured on a rheometer; settings: tablet of Experiment 6, RHEOMETER CR-500DX
Source text: During the preparation of tablets, the particulate composition was frequently observed, as a causative of cracking, to be adhered to a cylinder (punch) of the portable press machine at the stage of releasing the load and it induced cracking at the stage of taking out from the metallic mold of the press machine.

[4] = listed as particulate composition containing hydrous crystalline ascorbic acid 2-glucoside
[5] = listed as particulate composition containing anhydrous crystalline ascorbic acid 2-glucosi

| Oil-holding capacity [1] | Oil-holding capacity [1, 4] | Oil-holding capacity relative to the anhydrous crystalline control ([1]; hydrous versus anhydrous particulate composition) | degree of hardness of tablet [3] | Oil-holding capacity [1, 5] | Compound | Tablet form [2, 4] | Tablet form [2, 5] |
| --- | --- | --- | --- | --- | --- | --- | --- |
| 38.3 | 38.3 | about 1.5 folds | about 90 N |  | O=C1O[C@H]([C@@H](O)CO)C(O)=C1O[C@H]1O[C@H](CO)[C@@H](O)[C@H](O)[C@H]1O [Particulate composition containing hydrous crystalline ascor] [2-O-α-D-glucosyl-L-ascorbic acid] | neither cracking nor chipping was observed in all the 10 tablets |  |
| 25.2 |  |  |  | 25.2 | O=C1O[C@H]([C@@H](O)CO)C(O)=C1O[C@H]1O[C@H](CO)[C@@H](O)[C@H](O)[C@H]1O [Particulate composition containing anhydrous crystalline asc] [2-O-α-D-glucosyl-L-ascorbic acid] |  | cracking or chipping was observed in 9 out of 10 tablets |
